Results from ChEMBL document CHEMBL5518188, “Discovery of 4-amino-1,6-dihydro-7H-pyrrolo[2,3-d]pyridazin-7-one derivatives as potential receptor-interacting serine/threonine-protein kinase 1 (RIPK1) inhibitors” (Eur J Med Chem, 2024).
Activity calls are given as the source filed them. The rule behind the calls is not given here.

Columns and labels:
[1] = AUC (0 to t) in BALB/c mouse at 10 mg/kg, iv; type: ADME, organism-based; settings: BALB/c, in vivo
L929 = experiment: Anti-necroptosis activity against TSZ-induced mouse L929 cells; type: functional, cell-based
[2] = biological target: T1, Receptor-interacting serine/threonine-protein kinase 1 (Homo sapiens) (UniProt Q13546); settings: HT-29, dose 300.0 nM, time <= 6.0 hrs, TDE = time-dependent effect
T1 sequence (whole entry): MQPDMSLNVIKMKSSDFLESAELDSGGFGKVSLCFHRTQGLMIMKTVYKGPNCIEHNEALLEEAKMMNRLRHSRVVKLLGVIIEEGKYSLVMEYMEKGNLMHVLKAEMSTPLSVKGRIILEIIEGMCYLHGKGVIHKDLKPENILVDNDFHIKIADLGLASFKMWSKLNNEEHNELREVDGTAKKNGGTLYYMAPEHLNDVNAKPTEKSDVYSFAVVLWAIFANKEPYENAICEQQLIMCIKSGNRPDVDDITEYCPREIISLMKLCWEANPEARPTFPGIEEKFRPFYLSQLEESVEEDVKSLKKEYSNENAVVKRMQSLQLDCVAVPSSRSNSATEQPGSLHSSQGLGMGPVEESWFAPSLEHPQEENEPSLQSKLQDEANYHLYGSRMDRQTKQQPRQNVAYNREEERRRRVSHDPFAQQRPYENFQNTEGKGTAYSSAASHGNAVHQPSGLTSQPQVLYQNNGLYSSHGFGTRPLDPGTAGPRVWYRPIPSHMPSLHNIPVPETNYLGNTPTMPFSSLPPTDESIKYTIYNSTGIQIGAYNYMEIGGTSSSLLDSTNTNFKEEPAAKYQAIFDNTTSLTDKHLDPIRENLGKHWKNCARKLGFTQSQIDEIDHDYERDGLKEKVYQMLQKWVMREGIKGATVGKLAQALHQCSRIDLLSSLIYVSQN
Description: Inhibition of RIPK1 phosphorylation in TSZ-induced human HT-29 cells at 300 nM by Western blot analysis

[3] = biological target: Vascular endothelial growth factor receptor 3 (Homo sapiens) (UniProt P35916); experiment: Inhibition of FLT4 (unknown origin)
Sequence of Vascular endothelial growth factor receptor 3 (Homo sapiens) (P35916 whole entry): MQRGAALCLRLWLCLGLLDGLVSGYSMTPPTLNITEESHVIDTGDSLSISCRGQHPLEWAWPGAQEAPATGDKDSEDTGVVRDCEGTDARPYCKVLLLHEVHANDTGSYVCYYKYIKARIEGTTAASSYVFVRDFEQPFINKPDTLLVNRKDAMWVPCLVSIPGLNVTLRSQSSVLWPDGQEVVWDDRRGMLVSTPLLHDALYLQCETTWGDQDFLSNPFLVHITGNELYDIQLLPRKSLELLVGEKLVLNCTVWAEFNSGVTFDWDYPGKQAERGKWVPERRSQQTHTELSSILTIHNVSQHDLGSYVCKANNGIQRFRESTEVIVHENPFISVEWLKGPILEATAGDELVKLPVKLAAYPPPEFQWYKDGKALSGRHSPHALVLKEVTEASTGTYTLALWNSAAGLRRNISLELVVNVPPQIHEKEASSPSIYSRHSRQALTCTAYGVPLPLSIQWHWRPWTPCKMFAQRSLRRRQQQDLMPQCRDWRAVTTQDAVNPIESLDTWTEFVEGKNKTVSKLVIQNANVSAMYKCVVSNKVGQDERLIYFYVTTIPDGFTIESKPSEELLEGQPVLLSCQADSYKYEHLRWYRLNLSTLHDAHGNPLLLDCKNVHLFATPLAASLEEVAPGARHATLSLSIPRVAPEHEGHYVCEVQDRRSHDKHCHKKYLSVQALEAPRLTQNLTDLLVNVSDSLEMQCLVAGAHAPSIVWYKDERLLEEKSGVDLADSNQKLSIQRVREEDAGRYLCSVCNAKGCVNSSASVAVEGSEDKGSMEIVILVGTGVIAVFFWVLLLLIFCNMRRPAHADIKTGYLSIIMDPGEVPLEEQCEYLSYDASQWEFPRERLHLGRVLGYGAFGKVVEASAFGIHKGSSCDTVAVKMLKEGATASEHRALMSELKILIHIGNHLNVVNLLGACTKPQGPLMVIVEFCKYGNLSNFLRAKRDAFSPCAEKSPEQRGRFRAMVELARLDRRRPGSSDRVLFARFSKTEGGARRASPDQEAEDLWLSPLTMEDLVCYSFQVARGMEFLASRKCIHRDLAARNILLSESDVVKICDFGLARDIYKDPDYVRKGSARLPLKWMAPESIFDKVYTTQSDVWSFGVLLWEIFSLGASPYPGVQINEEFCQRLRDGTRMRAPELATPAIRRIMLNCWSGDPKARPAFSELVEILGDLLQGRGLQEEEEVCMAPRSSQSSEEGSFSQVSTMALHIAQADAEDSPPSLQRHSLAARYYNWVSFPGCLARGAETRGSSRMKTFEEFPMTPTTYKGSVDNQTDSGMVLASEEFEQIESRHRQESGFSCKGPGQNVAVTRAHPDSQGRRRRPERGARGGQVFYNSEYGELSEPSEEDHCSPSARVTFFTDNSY

[4] = biological target: T2, Receptor-interacting serine/threonine-protein kinase 3 (Homo sapiens, UniProt Q9Y572); settings: HT-29, dose 3.0 nM, time 6.0 hrs
T2 sequence (Q9Y572 whole entry, looked up): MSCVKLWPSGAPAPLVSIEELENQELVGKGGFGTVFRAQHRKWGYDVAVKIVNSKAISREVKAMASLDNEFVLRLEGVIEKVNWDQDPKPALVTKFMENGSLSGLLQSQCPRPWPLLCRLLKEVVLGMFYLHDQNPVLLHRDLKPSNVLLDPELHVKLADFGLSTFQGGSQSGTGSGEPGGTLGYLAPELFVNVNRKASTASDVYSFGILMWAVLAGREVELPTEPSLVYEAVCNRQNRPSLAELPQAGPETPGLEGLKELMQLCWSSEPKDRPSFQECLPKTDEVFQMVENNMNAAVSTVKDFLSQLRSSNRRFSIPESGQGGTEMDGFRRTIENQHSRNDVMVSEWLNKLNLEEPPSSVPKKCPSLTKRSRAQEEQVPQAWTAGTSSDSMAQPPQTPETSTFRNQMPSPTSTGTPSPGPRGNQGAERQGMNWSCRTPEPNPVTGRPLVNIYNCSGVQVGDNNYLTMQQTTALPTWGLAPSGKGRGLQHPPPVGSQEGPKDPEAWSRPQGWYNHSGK

[5] = biological target: High affinity nerve growth factor receptor (Homo sapiens) (UniProt P04629); experiment: Inhibition of TRKA (unknown origin)
Sequence of High affinity nerve growth factor receptor (Homo sapiens) (P04629 33-796 limits assumed): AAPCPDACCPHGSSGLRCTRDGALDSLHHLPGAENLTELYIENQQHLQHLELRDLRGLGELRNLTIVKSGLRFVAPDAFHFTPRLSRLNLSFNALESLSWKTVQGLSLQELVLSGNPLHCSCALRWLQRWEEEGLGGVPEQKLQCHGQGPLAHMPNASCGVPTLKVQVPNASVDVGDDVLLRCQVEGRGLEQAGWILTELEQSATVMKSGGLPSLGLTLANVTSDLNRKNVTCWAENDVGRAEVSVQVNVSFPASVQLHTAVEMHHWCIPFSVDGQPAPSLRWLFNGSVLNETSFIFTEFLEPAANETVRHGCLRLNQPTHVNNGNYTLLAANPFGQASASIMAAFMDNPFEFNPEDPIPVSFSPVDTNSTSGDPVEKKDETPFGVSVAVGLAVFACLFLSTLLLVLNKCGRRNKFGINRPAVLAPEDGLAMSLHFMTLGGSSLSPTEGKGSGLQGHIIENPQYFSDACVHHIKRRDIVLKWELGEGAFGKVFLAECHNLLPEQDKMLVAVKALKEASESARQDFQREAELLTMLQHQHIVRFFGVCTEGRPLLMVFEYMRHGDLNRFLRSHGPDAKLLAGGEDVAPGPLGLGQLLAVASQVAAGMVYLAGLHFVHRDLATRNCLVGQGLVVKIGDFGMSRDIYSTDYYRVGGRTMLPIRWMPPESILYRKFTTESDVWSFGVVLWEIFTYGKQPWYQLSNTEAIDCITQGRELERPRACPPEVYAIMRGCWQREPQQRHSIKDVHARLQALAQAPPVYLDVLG

[6] = Selectivity ratio of Kd for binding affinity to RIPK1 (unknown origin) assessed as dissociation constant to Kd for binding affinity to RIPK3 (unknown origin) assessed as dissociation constant
[7] = Metabolic stability in cryopreserved human liver microsome assessed as half life; type: ADME; settings: cryopreserved liver microsomes
Mus musculus [8] = experiment: In vivo anti-necrotptic activity in SIRS mouse model assessed as protection from body temperature loss at 10 mg/kg, po measured upto 6 hrs; type: functional, organism-based
HT-29 = experiment: Anti-necroptosis activity against TSZ-induced human HT-29 cells by microscopic analysis; type: functional, cell-based
[9] = biological target: BDNF/NT-3 growth factors receptor (Homo sapiens) (UniProt Q16620); experiment: Inhibition of TRKB (unknown origin)
Sequence of BDNF/NT-3 growth factors receptor (Homo sapiens) (Q16620 32-822 limits assumed): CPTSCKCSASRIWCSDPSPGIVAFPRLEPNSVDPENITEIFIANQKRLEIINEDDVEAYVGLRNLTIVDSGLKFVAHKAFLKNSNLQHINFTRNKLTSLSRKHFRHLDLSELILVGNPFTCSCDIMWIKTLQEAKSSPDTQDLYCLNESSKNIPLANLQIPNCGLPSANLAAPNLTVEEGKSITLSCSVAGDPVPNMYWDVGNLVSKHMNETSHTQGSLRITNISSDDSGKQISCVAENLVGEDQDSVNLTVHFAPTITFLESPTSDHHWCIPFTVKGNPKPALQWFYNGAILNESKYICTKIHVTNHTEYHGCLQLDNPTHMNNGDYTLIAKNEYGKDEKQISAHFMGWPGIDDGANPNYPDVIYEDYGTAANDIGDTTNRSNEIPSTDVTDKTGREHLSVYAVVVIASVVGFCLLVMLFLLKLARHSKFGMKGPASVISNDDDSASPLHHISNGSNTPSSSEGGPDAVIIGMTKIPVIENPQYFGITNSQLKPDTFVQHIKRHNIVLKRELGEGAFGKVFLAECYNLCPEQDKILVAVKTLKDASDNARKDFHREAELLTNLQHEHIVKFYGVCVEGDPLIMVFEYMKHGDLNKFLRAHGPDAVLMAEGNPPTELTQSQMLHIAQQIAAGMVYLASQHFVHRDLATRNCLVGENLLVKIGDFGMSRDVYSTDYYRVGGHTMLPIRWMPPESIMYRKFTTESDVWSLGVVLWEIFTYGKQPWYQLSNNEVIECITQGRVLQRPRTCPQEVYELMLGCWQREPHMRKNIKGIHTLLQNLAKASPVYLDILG

[10] = Clearance in BALB/c mouse at 10 mg/kg, po; type: ADME, organism-based; settings: BALB/c, in vivo
[11] = biological target: T3, Mixed lineage kinase domain-like protein (Homo sapiens) (UniProt Q8NB16); settings: HT-29, dose 30.0 nM, time 6.0 hrs
T3 sequence (whole entry): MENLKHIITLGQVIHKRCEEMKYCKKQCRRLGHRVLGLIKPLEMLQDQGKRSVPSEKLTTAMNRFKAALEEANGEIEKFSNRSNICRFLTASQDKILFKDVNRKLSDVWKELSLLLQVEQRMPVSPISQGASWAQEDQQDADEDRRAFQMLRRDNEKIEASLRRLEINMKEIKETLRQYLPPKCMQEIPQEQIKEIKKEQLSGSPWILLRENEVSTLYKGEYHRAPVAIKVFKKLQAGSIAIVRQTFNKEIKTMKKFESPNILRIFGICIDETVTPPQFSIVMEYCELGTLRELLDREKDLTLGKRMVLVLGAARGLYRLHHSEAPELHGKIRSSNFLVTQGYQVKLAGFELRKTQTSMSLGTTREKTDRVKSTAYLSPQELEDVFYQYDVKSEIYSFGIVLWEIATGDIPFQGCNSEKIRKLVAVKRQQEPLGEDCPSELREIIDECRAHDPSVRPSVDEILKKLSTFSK

[12] = biological target: Vascular endothelial growth factor receptor 1 (Homo sapiens) (UniProt P17948); experiment: Inhibition of FLT1 (unknown origin)
Sequence of Vascular endothelial growth factor receptor 1 (Homo sapiens) (P17948 whole entry): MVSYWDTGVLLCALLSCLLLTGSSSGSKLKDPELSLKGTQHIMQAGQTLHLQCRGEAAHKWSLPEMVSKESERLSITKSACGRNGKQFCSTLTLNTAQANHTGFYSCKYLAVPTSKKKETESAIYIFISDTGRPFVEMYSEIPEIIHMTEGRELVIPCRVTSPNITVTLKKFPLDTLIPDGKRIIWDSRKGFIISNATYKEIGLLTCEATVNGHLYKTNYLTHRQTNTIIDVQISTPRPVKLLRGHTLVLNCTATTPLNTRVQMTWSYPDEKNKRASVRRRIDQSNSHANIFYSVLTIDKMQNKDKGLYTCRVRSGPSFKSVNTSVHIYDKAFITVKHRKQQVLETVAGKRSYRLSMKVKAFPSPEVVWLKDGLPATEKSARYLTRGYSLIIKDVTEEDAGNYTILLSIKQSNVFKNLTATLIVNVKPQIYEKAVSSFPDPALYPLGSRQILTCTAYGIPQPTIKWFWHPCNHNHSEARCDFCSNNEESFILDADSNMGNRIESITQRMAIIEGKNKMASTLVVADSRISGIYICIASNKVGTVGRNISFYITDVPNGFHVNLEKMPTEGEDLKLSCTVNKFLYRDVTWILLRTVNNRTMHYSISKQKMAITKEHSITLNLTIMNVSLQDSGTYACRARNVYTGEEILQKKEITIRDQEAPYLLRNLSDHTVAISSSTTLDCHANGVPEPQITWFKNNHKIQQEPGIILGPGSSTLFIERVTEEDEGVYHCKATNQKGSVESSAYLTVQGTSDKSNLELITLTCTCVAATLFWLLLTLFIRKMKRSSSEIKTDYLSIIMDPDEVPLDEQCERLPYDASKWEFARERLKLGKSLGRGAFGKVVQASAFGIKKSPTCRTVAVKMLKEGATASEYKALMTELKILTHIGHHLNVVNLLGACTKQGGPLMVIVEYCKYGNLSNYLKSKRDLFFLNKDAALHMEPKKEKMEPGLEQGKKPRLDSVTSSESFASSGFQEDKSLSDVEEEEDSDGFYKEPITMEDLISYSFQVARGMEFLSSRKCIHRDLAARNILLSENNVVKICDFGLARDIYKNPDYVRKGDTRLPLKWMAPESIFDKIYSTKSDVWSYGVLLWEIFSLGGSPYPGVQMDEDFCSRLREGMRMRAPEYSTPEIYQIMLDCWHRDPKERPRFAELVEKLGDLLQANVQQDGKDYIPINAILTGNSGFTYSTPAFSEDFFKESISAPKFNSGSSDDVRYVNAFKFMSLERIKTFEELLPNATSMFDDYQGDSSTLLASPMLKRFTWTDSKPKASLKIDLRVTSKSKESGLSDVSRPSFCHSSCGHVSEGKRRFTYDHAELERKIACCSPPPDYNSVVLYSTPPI

[13] = AUC (0 to t) in BALB/c mouse at 10 mg/kg, po; type: ADME, organism-based; settings: BALB/c, in vivo
[14] = biological target: Tyrosine-protein kinase Lyn (Homo sapiens) (UniProt P07948); experiment: Inhibition of LYN (unknown origin)
[15] = Clearance in BALB/c mouse at 10 mg/kg, iv; type: ADME, organism-based; settings: in vivo
[16] = biological target: T2, Receptor-interacting serine/threonine-protein kinase 3; settings: HT-29, dose 300.0 nM, time <= 6.0 hrs, TDE = time-dependent effect
Description: Inhibition of RIPK3 phosphorylation in TSZ-induced human HT-29 cells at 300 nM by Western blot analysis

Mus musculus [17] = experiment: In vivo anti-necrotptic activity in po dosed SIRS mouse model assessed as reduction in IL-6 level measured at 4 hrs; type: functional, organism-based; settings: dose 2.5-10 mg/kg
[18] = Apparent volume of distribution in BALB/c mouse at 10 mg/kg, po; type: ADME, organism-based; settings: in vivo

- AUC(0-t) [1]: 9640 ng·h/mL
- inhibition [2]: Tde
- inhibition [3]: Active
- inhibition [4]: Dose-Dependent Effect
- inhibition [5]: Active
- Selectivity ratio [6]: 486
- half-life [7]: 75.3 min
- inhibition [9]: Active
- CL/F [10]: 17.3 mL/min/kg
- inhibition [11]: Dose-Dependent Effect
- inhibition [12]: Active
- AUC(0-t) [13]: 9640 ng·h/mL
- inhibition [14]: Active
- clearance [15]: 17.3 mL/min/kg
- inhibition [16]: Tde
- Vz [18]: 1.24 L/kg
SMILES: CC1(Cn2cc(-c3ccc4c(c3)CCN4C(=O)Cc3cccc(OC(F)(F)F)c3)c3c(N)n[nH]c(=O)c32)COC1
- EC50 (L929): 1.06 nM
- Activity (Mus musculus [8]): Active
- Activity (HT-29): Active
- Activity (Mus musculus [17]): Dose-Dependent Effect
